We go through 12 compounds from patent US11053241B2, “TYK2 inhibitors and uses thereof” (Nimbus Lakshmi, Inc., priority 2018, dated 2021).

The experiment deals with human TYK2 (JH2domain-pseudokinase) (Homo sapiens (Human), UniProt P29597). Kind of experiment: TYK2 JH2 Domain Binding Assay (KINOMEscan). The settings on record: 11-point 3-fold dilution, top concentration 30,000 nM, duplicate. On the procedure: Binding constants for compounds of the present invention against the JH2 domain were determined by the following protocol for a KINOMEscan® assay (DiscoveRx). A fusion protein of a partial length construct of human TYK2 (JH2domain-pseudokinase) (amino acids G556 to D888 based on reference sequence NP_003322.3) and the DNA binding domain of NFkB was expressed in transiently transfected HEK293 cells. From these HEK 293 cells, extracts were prepared in M-PER extraction buffer (Pierce) in the presence of Protease Inhibitor Cocktail Complete (Roche) and Phosphatase Inhibitor Cocktail Set II (Merck) per manufacturers' instructions. The TYK2(JH2domain-pseudokinase) fusion protein was labeled with a chimeric double-stranded DNA tag containing the NFkB binding site (5′-GGGAATTCCC-3′) fused to an amplicon for qPCR readout, which was added directly to the expression extract (the final concentration of DNA-tag in the binding reaction is 0.1 nM).
human TYK2 (JH2domain-pseudokinase), sequence (P29597 556-888): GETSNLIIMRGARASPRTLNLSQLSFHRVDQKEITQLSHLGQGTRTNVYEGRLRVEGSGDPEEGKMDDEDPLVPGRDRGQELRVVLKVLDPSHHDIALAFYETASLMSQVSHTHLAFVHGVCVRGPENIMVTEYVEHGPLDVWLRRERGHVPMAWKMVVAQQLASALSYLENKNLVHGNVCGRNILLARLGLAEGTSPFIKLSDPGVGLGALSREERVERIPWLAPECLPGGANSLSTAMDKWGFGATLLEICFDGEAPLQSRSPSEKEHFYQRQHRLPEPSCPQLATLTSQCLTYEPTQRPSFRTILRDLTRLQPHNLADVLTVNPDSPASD
Streptavidin-coated magnetic beads (Dynal M280) were treated with a biotinylated small molecule ligand for 30 minutes at room temperature to generate affinity resins for the binding assays. The liganded beads were blocked with excess biotin and washed with blocking buffer (SeaBlock (Pierce), 1% BSA, 0.05% Tween 20, 1 mM DTT) to remove unbound ligand and to reduce nonspecific binding.
The binding reaction was assembled by combining 16 μl of DNA-tagged kinase extract, 3.8 μl liganded affinity beads, and 0.18 μl test compound (PBS/0.05% Tween 20/10 mM DTT/0.1% BSA/2 μg/ml sonicated salmon sperm DNA). Extracts were used directly in binding assays without any enzyme purification steps at a ≥10,000-fold overall stock dilution (final DNA-tagged enzyme concentration <0.1 nM). Extracts were loaded with DNA-tag and diluted into the binding reaction in a two step process. First extracts were diluted 1:100 in 1× binding buffer (PBS/0.05% Tween 20/10 mM DTT/0.1% BSA/2 μg/ml sonicated salmon sperm DNA) containing 10 nM DNA-tag. This dilution was allowed to equilibrate at room temperature for 15 minutes and then subsequently diluted 1:100 in 1× binding buffer. All reactions were performed in polypropylene 384-well plates. Each was a final volume of 0.02 mL. Assays were incubated with shaking for 1 hour at room temperature. Then the beads were pelleted and washed with wash buffer (1×PBS, 0.05% Tween 20) to remove displaced kinase and test compound. The washed based were re-suspended in elution buffer (1×PBS, 0.05% Tween 20, 0.5 μM non-biotinylated affinity ligand) and incubated at room temperature with shaking for 30 minutes. The kinase concentration in the eluates was measured by qPCR. qPCR reactions were assembled by adding 2.5 μL of kinase eluate to 7.5 μL of qPCR master mix containing 0.15 μM amplicon primers and 0.15 μM amplicon probe. The qPCR protocol consisted of a 10 minute hot start at 95° C., followed by 35 cycles of 95° C. for 15 seconds, 60° C. for 1 minute.
Test compounds were prepared as 111× stocks in 100% DMSO. Kd values were determined using an 11-point 3-fold compound dilution series with three DMSO control points. All compounds for Kd measurements are distributed by acoustic transfer (non-contact dispensing) in 100% DMSO. The compounds were then diluted directly into the assays such that the final concentration of DMSO was 0.9%. The Kd values were determined using a compound top concentration of 30,000 nM. Kd measurements were performed in duplicate.
Binding constants (Kds) were calculated with a standard dose-response curve using the Hill equation: […]
The Hill Slope was set to −1. Curves were fitted using a non-linear least square fit with the Levenberg-Marquardt algorithm (Levenberg, K., A method for the solution of certain non-linear problems in least squares, Q. Appl. Math. 2, 164-168 (1944)).
The compound `CNC(=O)c1cnc(Nc2ccn(C)n2)c2[nH]c(-c3ccccc3)cc12` [Compound I-93, N-methyl-7-((1-methyl-1H-pyrazol-3-yl)amino)-2-phenyl-1H-pyrrolo[2,3-c]pyridine-4-carboxamide] yielded a Kd of 0.2 to 1 nM.
In the case of `CNC(=O)c1cnc(NC(=O)C2CC2)c2[nH]c(-c3ncc(C(=O)N(C)C)cc3F)cc12` [Compound I-51, 7-(cyclopropanecarboxamido)-2-(5-(dimethylcarbamoyl)-3-fluoropyridin-2-yl)-N-methyl-1H-pyrrolo[2,3-c]pyridine-4-carboxamide] it was 0.2 to 1 nM; in that of `CNC(=O)c1cnc(NC(=O)C2CC2)c2[nH]c(-c3c(F)cc(-c4nccn4C)cc3N3CCOCC3)cc12` [Compound I-86, 7-(cyclopropanecarboxamido)-2-(2-fluoro-4-(1-methyl-1H-imidazol-2-yl)-6-morpholinophenyl)-N-methyl-1H-pyrrolo[2,3-c]pyridine-4-carboxamide], under 0.2 nM; in that of `CNC(=O)c1cnc(NC(=O)C2CC2)c2[nH]c(-c3cnccc3OC3CC3)cc12` [Compound I-44, 7-(cyclopropanecarboxamido)-2-(4-cyclopropoxypyridin-3-yl)-N-methyl-1H-pyrrolo[2,3-c]pyridine-4-carboxamide], under 0.2 nM.
In turn, `CNC(=O)c1cnc(NC(=O)C2CC2)c2[nH]c(-c3ccc(C4COCCO4)cc3OC)cc12` (stereo not drawn) [Compound I-61, 2-(4-(1,4-dioxan-2-yl)-2-methoxyphenyl)-7-(cyclopropanecarboxamido)-N-methyl-1H-pyrrolo[2,3-c]pyridine-4-carboxamide] showed a Kd of over 10 nM.
Compound `CNC(=O)c1cnc(NC(=O)C2CC2)c2[nH]c(-c3ccc(-c4ncc5n4CCCC5)cc3F)cc12` [Compound I-75, 7-(cyclopropanecarboxamido)-2-(2-fluoro-4-(5,6,7,8-tetrahydroimidazo[1,5-a]pyridin-3-yl)phenyl)-N-methyl-1H-pyrrolo[2,3-c]pyridine-4-carboxamide] showed an equilibrium dissociation constant (Kd) of under 0.2 nM.
In the case of `CNC(=O)c1cnc(NC(=O)C2CC2)c2[nH]c(-c3ccc(C4COCCO4)cc3OC)cc12` (stereo not drawn) [Compound I-89, 2-(4-(1,4-dioxan-2-yl)-2-methoxyphenyl)-7-(cyclopropanecarboxamido)-N-methyl-1H-pyrrolo[2,3-c]pyridine-4-carboxamide] it was 0.2 to 1 nM; in that of `CCc1csc(-c2cc3c(C(=O)NC)cnc(NC(=O)C4CC4)c3[nH]2)n1` [Compound I-70, 7-(cyclopropanecarboxamido)-2-(4-ethylthiazol-2-yl)-N-methyl-1H-pyrrolo[2,3-c]pyridine-4-carboxamide], 0.2 to 1 nM; in that of `CNC(=O)c1cnc(NC(=O)C2CC2)c2[nH]c(-c3cccn(C4CCCOC4)c3=O)cc12` (stereo in doubt) [Compound I-56, (R)-7-(cyclopropanecarboxamido)-N-methyl-2-(2-oxo-1-(tetrahydro-2H-pyran-3-yl)-1,2-dihydropyridin-3-yl)-1H-pyrrolo[2,3-c]pyridine-4-carboxamide], 0.2 to 1 nM.
For the compound `CNC(=O)c1cnc(NC(=O)C2CC2)c2[nH]c(N3CCCCC3)cc12` [Compound I-96, 7-(cyclopropanecarboxamido)-N-methyl-2-(piperidin-1-yl)-1H-pyrrolo[2,3-c]pyridine-4-carboxamide], the Kd was over 10 nM.
`CNC(=O)c1cnc(NC(=O)C2CC2)c2[nH]c(-c3ccc(-c4nccn4C)cc3OC3CC3)cc12` [Compound I-57, 7-(cyclopropanecarboxamido)-2-(2-cyclopropoxy-4-(1-methyl-1H-imidazol-2-yl)phenyl)-N-methyl-11H-pyrrolo[2,3-c]pyridine-4-carboxamide] showed a Kd of 1 to 10 nM.
In the case of `CNC(=O)c1cnc(NC(=O)C2CC2)c2[nH]c(-c3ccc(-c4cn(C)nn4)cc3OC)cc12` [Compound I-64, 7-(cyclopropanecarboxamido)-2-(2-methoxy-4-(1-methyl-1H-1,2,3-triazol-4-yl)phenyl)-N-methyl-1H-pyrrolo[2,3-c]pyridine-4-carboxamide], the equilibrium dissociation constant (Kd) is over 10 nM.
